Structures can show the parent of a compound that is named as a salt. Where two headings read alike, the source gives them in different places.

In data set [1] the test system is Diet Induced Obese (DIO) C57BL/6 mice. The data set can be described thus: 10 day DIO mouse model (body weight, food intake, hematology, blood chemistry). Type of data set: in vivo. The conditions noted are these: 240 h, read-out: DIO Mouse 10-day weight loss vs vehicle; for inhibition in vivo at 0.1 mg/kg: 0.1 mpk sc; for inhibition in vivo at 1 mg/kg: 1.0 mpk sc. The essentials: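 DIO C57BL/6 mice on 60% kcal fat diet received compounds subcutaneously once daily for 10 days at 1.0, 0.5, 0.3, 0.1 or 0.03 mpk, in 10% DMSO in water, after 3-day vehicle acclimation. Body weight and food intake were recorded daily. Hematology and blood chemistry were taken on Day 11, 24 h post-final dose.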

The subject of data set [2] is Male Sprague Dawley rats on high fat diet. The data set can be described thus: 11 day rat DIO model (body weight, food intake, hematology, blood chemistries). Type of data set: in vivo. The conditions noted are these: 264 h, read-out: DIO Rat 11-day weight loss vs vehicle. A digest of the protocol:
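Male Sprague Dawley rats on 45% high-fat diet, acclimated 3 days to vehicle injections, then given compound (0.03-1.0 mg/kg) or vehicle (10% DMSO in water) sc once daily for 11 days. Body weight and food intake recorded daily. Blood taken about 2 h after the final dose for hematology and chemistry.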

The test system of data set [3] is pregnant Sprague Dawley rats (embryo/fetal development). From the text:
Study Summary Rat Embryofetal:
The objective of this study design was to evaluate the potential effects of disclosed compounds on embryo/fetal development when given subcutaneously to pregnant rats once every three days during the critical period of organogenesis (Gestation Days 6-18). Female, Sprague Dawley rats, approximately 10 weeks of age, time bred, were ordered from a certified vendor and housed individually housed in stainless steel cages suspended over flush pans, on a 12-hour light-dark cycle (0700-1900) at 20-26° C. and 30-70% humidity. Rats were fed a standard rodent chow and provided water ad libitum. Rats were received and housed in the facility for a period of approximately 1 to 2 days.
Compounds were formulated using 100% DMSO mixed in Sterile Water for Injection, resulting in 2% DMSO solution in water. If necessary, due to limited solubility of a test article, a higher percentage of DMSO solution in water was used. Groups of 8 mated and presumed pregnant female rats were given subcutaneous doses of vehicle or test article, once every three days, beginning on Gestation Day 6 and ending on Gestation Day 18 (Days 6, 9, 12, 15, and 18), maintained two more days, and then euthanized and necropsied on Gestation Day 20. Body weights was recorded for all animals on Gestation Days 5 (purpose of randomization), 6, 9, 12, 15, 18, and 20 (scheduled euthanasia). Food consumption by weight was recorded on Gestation Days 6, 9, 12, 15, 18, and 20 (scheduled termination).
At necropsy, the dams were examined visually for external abnormalities including palpable masses. The abdominal, thoracic, and cranial cavities and their contents were examined for abnormalities and findings will be recorded. The reproductive tract were examined to record the number of ovarian corpora lutea, the number and location of uterine implantation sites noting the position of the cervix, and the number of early resorptions, late resorptions, live fetuses, and dead fetuses. For dead fetuses and late resorptions, crown-to-rump length and weight were recorded, if possible, and the fetus was discarded. For viable fetuses, weight, sex, and grossly visible external abnormalities were recorded.

Data set [4] has as its target recombinant human MetAP2 (Homo sapiens (Human), UniProt P50579). The data set can be described thus: recombinant human MetAP2 enzyme inhibition assay. Type of data set: biochemical. How it is done: Compounds are tested for their capacity to inhibit recombinant human MetAP2 activity using the following assay.
Flag tagged Human recombinant MetAP2 expressed and isolated for use as the enzyme source. 10 mM stock solutions of compounds were prepared in 100% DMSO and further diluted in 100% DMSO required concentration to 1 mM stocks. The stock compound solutions and DMSO vehicle controls were diluted to target final compound concentrations using assay buffer to a final concentration of 50 mM HEPES containing 100 mM NaCl, pH adjusted to 7.5. The MAS peptide was formulated to a 7.5 mM stock in distilled water and prior to use further diluted 1:4. […] 40 μl of enzyme was mixed with 100 μl of MnCl2 then further diluted in assay buffer to a final concentration of 16 μg/ml. To test for compound effect on MetAP2 enzyme activity, 5 μl of test compound, 10 μl of MAS substrate/amino acid oxidase mixture, 10 μl of MetAP2 was added to test wells in a 384 well black plate with blank wells containing no enzyme, replaced with 10 μl of assay buffer. All compounds were tested in duplicate on two occasions on the same day.
The plate was sealed with a TopSeal A cover and mixed briefly on an orbital mixer at 900 rpm. The plate was incubated for a further 25 minutes at 25° C. A 5× stock of Amplex buffer was prepared (0.25M sodium phosphate, pH 7.4) and stored at 4° C. […] 25 μl detection reagent was added to each well of the test plate, which was re-sealed and mixed briefly on an orbital shaker.

Setting [5] is: recombinant human MetAP2, MAS peptide substrate, 25 minutes at 25° C.
Setting [6] is: DIO mouse, 0.3 mpk sc, once a day for 10 days.
Where [7] appears, read: DIO rat, 0.3 mpk sc, once a day for 11 days.
Where [8] appears, read: DIO rat, 1.0 mpk sc, once a day for 11 days.
Setting [9] is: 6 mpk, subcutaneous, once every three days, Gestation Days 6-18, pregnant rats.
Where [10] appears, read: DIO mouse, once a day for 10 days.

Sequence of recombinant human MetAP2 (P50579 whole entry): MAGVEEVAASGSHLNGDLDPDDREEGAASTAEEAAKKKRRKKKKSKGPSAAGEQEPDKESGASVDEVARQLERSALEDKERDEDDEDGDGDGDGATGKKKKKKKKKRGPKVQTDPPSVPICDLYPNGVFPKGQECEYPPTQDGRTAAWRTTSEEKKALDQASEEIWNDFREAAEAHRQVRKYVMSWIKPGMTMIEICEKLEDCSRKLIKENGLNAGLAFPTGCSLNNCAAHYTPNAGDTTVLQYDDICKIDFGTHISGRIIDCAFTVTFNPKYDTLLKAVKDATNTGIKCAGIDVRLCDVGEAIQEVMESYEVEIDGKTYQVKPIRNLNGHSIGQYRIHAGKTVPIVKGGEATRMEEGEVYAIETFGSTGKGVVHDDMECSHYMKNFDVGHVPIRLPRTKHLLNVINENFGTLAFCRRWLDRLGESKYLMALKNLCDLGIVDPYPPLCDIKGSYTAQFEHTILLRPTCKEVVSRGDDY

On to `CO[C@@H]1[C@H](OC(=O)N2CC(CCN3CC(C)(O)C3)C2)CC[C@]2(CO2)[C@H]1[C@@]1(C)O[C@@H]1CC=C(C)C` [Example 9, (3R,4S,5S,6R)-5-methoxy-4-((2R,3R)-2-methyl-3-(3-methylbut-2-enyl)oxiran-2-yl)-1-oxaspiro[2.5]octan-6-yl 3-(2-(3-hydroxy-3-methylazetidin-1-yl)ethyl)azetidine-1-carboxylate formate], for which the inhibition in vivo at 0.3 mg/kg in data set [1] (Mus musculus, sc) came out at 7.4%. In addition, in data set [2] (Rattus norvegicus, sc), the inhibition in vivo at 0.3 mg/kg was 5.5% and the inhibition in vivo at 1 mg/kg amounted to 4.8%. In addition, the “Rat Embryofetal @6 mpk” value in data set [3] (rat, in vivo) is “Positive”.
For `CNC(=O)OC1CN(C(=O)O[C@@H]2CC[C@]3(CO3)[C@@H]([C@@]3(C)O[C@@H]3CC=C(C)C)[C@@H]2OC)C1` [Example 74, (3R,4S,5S,6R)-5-methoxy-4-((2R,3R)-2-methyl-3-(3-methylbut-2-enyl)oxiran-2-yl)-1-oxaspiro[2.5]octan-6-yl 3-(methylcarbamoyloxy)azetidine-1-carboxylate], in data set [4] (setting [5]), the IC50 – broadly, the concentration that inhibits the measured activity by half – is less than 0.05 µM. Further, the inhibition in vivo at 0.3 mg/kg in data set [1] (setting [6]) is 12.3%; in data set [2] (setting [7]) it was 7.9%. Further, in data set [2] (setting [8]), the inhibition in vivo at 1 mg/kg came to 6%. The “Rat Embryofetal @6 mpk” value in data set [3] (setting [9]) is reported as “Negative”.
Take `CO[C@@H]1[C@H](OC(=O)N2CC(OC(=O)N3CCN(C)CC3)C2)CC[C@]2(CO2)[C@H]1[C@@]1(C)O[C@@H]1CC=C(C)C` [Example 78, 1-(((3R,4S,5S,6R)-5-methoxy-4-((2R,3R)-2-methyl-3-(3-methylbut-2-enyl)oxiran-2-yl)-1-oxaspiro[2.5]octan-6-yloxy)carbonyl)azetidin-3-yl 4-methylpiperazine-1-carboxylate]: the results for the inhibition in vivo at 0.3 mg/kg in data set [1] (setting [6]) and in data set [2] (setting [7]) were 10.7% and 1.2%, respectively. The “Rat Embryofetal @6 mpk” value in data set [3] (setting [9]) is “Positive”.
`CCN(CC)CCNC(=O)CCC1CN(C(=O)O[C@@H]2CC[C@]3(CO3)[C@@H]([C@@]3(C)O[C@@H]3CC=C(C)C)[C@@H]2OC)C1` [Example 88, (3R,4S,5S,6R)-5-methoxy-4-((2R,3R)-2-methyl-3-(3-methylbut-2-enyl)oxiran-2-yl)-1-oxaspiro[2.5]octan-6-yl 3-(3-(2-(diethylamino)ethylamino)-3-oxopropyl)azetidine-1-carboxylate formate]: the IC50 in data set [4] is less than 0.05 µM. For the same compound, the inhibition in vivo at 0.3 mg/kg in data set [1] (Mus musculus, sc) was determined as 9%; in data set [2] (Rattus norvegicus, sc), 4.4%. Further, in data set [3] (rat, in vivo), the “Rat Embryofetal @6 mpk” value was “Positive”.
`CO[C@@H]1[C@H](OC(=O)N2CC(Cc3ccc(C)nc3)C2)CC[C@]2(CO2)[C@H]1[C@@]1(C)O[C@@H]1CC=C(C)C` [Example 101, (3R,4S,5S,6R)-5-methoxy-4-((2R,3R)-2-methyl-3-(3-methylbut-2-enyl)oxiran-2-yl)-1-oxaspiro[2.5]octan-6-yl 3-((6-methylpyridin-3-yl)methyl)azetidine-1-carboxylate]: the figures for the inhibition in vivo at 0.3 mg/kg in data set [1] (setting [6]) and in data set [2] (setting [7]) were 15.6% and 3.9%, respectively. The “Rat Embryofetal @6 mpk” value in data set [3] (setting [9]) is on record as “Positive”.
`CCN(CC)CCC1CN(C(=O)O[C@@H]2CC[C@]3(CO3)[C@@H]([C@@]3(C)O[C@@H]3CC=C(C)C)[C@@H]2OC)C1` [Example 103, (3R,4S,5S,6R)-5-methoxy-4-((2R,3R)-2-methyl-3-(3-methylbut-2-enyl)oxiran-2-yl)-1-oxaspiro[2.5]octan-6-yl 3-(2-(diethylamino)ethyl)azetidine-1-carboxylate]: the IC50 in data set [4] (setting [5]) was less than 0.05 µM. In data set [1] (setting [10]), the inhibition in vivo at 0.1 mg/kg came to 5.1% and the inhibition in vivo at 1 mg/kg came out at 15.8%. Moreover, the inhibition in vivo at 0.3 mg/kg in data set [1] (setting [6]) was 6.7%. Further, in data set [2] (DIO rat, 0.5 mpk sc, once a day for 11 days), the inhibition in vivo at 0.5 mg/kg stood at 2.57%. In data set [2] (setting [8]), the inhibition in vivo at 1 mg/kg amounted to 4.7%. For the same compound, the “Rat Embryofetal @6 mpk” value in data set [3] (setting [9]) is listed as “Positive”.
In the case of `CCN(CC)CCCC1CN(C(=O)O[C@@H]2CC[C@]3(CO3)[C@@H]([C@@]3(C)O[C@@H]3CC=C(C)C)[C@@H]2OC)C1` [Example 104, (3R,4S,5S,6R)-5-methoxy-4-((2R,3R)-2-methyl-3-(3-methylbut-2-enyl)oxiran-2-yl)-1-oxaspiro[2.5]octan-6-yl 3-(3-(diethylamino)propyl)azetidine-1-carboxylate], in data set [1] (DIO mouse, 0.03 mpk sc, once a day for 10 days), the inhibition in vivo at 0.03 mg/kg was -0.9%. In addition, the inhibition in vivo at 0.1 mg/kg in data set [1] (setting [10]) amounted to 8.3%. In addition, the inhibition in vivo at 0.3 mg/kg in data set [1] (setting [6]) was 6.4%; in data set [2] (setting [7]) it was 1.2%. The inhibition in vivo at 1 mg/kg is 10.9% in data set [1] (setting [10]) and 9.9% in data set [2] (setting [8]). Further, the “Rat Embryofetal @6 mpk” value in data set [3] (setting [9]) is given as “Positive”.

(Values after patent publication US9682965B2, “Fumagillol heterocyclic compounds and methods of making and using same” (Zafgen, Inc., priority 2015, dated 2017).)
